According to ChEMBL document CHEMBL1143429, “One-pot synthesis and antibacterial activities of pyrazolo[4',3':5,6]pyrido[2,3-d]pyrimidine-dione derivatives” (2008):
≈ marks a conversion by molar mass, not a printed value. Calls of active or inactive are those of the source. The rule behind the calls is not given here.

How the values were obtained:
Assay type in all cases: functional
[1] = tested on: Bacillus subtilis; experiment: Antibacterial activity against Bacillus subtilis ATCC 465 by microdilution method
[2] = tested on: Bacillus pumilus; experiment: Antibacterial activity against Bacillus pumilus PTCC 1114 by microdilution method
[3] = tested on: Micrococcus luteus; experiment: Antibacterial activity against Micrococcus luteus PTCC 1110 by microdilution method
[4] = tested on: Staphylococcus aureus; experiment: Antibacterial activity against Staphylococcus aureus ATCC 25923 by microdilution method
[5] = tested on: Staphylococcus epidermidis; experiment: Antibacterial activity against Staphylococcus epidermidis ATCC 12228 by microdilution method
[6] = tested on: Streptococcus mutans; experiment: Antibacterial activity against Streptococcus mutans PTCC 1601 by microdilution method
[7] = tested on: Escherichia coli; experiment: Antibacterial activity against Escherichia coli ATCC 25922 by microdilution method
[8] = tested on: Enterococcus faecalis; experiment: Antibacterial activity against Enterococcus faecalis ATCC 29737 by microdilution method
[9] = tested on: Pseudomonas aeruginosa; experiment: Antibacterial activity against Pseudomonas aeruginosa ATCC 85327 by microdilution method

| Compound | MIC [1] [µg/mL] | MIC [2] [µg/mL] | MIC [3] [µg/mL] | MIC [4] [µg/mL] | MIC [5] [µg/mL] | MIC [6] [µg/mL] | MIC [7] [µg/mL] | MIC [8] [µg/mL] | MIC [9] [µg/mL] | Activity [7] | Activity [9] | Activity [1] | Activity [2] | Activity [3] | Activity [4] | Activity [5] | Activity [6] | Activity [8] |
| --- | --- | --- | --- | --- | --- | --- | --- | --- | --- | --- | --- | --- | --- | --- | --- | --- | --- | --- |
| O=c1[nH]c(=S)[nH]c2c1C(c1ccccc1)c1c(-c3ccccc3)nn(-c3ccc([N+](=O)[O-])cc3)c1N2 (configuration not stated) | 3 (≈ 6.07 µM) | 4 (≈ 8.09 µM) | 4 (≈ 8.09 µM) | 3 (≈ 6.07 µM) | 7 (≈ 14.2 µM) | 8 (≈ 16.2 µM) | 5 (≈ 10.1 µM) | 13 (≈ 26.3 µM) | 14 (≈ 28.3 µM) |  |  |  |  |  |  |  |  |  |
| O=c1[nH]c2c(c(=O)[nH]1)C(c1ccccc1)c1c(-c3ccccc3)nn(-c3ccc([N+](=O)[O-])cc3)c1N2 (configuration not stated) | 6 (≈ 12.5 µM) | 4 (≈ 8.36 µM) | 2 (≈ 4.18 µM) | 4 (≈ 8.36 µM) | 18 (≈ 37.6 µM) | < 2 | 4 (≈ 8.36 µM) | 4 (≈ 8.36 µM) | 20 (≈ 41.8 µM) |  |  |  |  |  |  |  |  |  |
| O=c1[nH]c(=S)[nH]c2c1C(c1ccc([N+](=O)[O-])cc1)c1c(-c3ccccc3)nn(-c3ccc([N+](=O)[O-])cc3)c1N2 (configuration not stated) | 4 (≈ 7.41 µM) | 4 (≈ 7.41 µM) | 4 (≈ 7.41 µM) | 6 (≈ 11.1 µM) | 8 (≈ 14.8 µM) | 8 (≈ 14.8 µM) | 6 (≈ 11.1 µM) | 10 (≈ 18.5 µM) | 14 (≈ 25.9 µM) |  |  |  |  |  |  |  |  |  |
| O=c1[nH]c2c(c(=O)[nH]1)C(c1ccccc1)c1c(-c3ccccc3)nn(-c3ccccc3)c1N2 (configuration not stated) | 2 (≈ 4.61 µM) | < 2 | < 2 | 2 (≈ 4.61 µM) | 2 (≈ 4.61 µM) | < 2 | < 2 | 2 (≈ 4.61 µM) | 2 (≈ 4.61 µM) |  |  |  |  |  |  |  |  |  |
| O=c1[nH]c2c(c(=O)[nH]1)C(c1ccc(Cl)cc1)c1c(-c3ccccc3)nn(-c3ccccc3)c1N2 (configuration not stated) | 4 (≈ 8.55 µM) | 2 (≈ 4.27 µM) | < 2 | 64 (≈ 137 µM) | 4 (≈ 8.55 µM) | < 2 | < 2 | 32 (≈ 68.4 µM) | 2 (≈ 4.27 µM) |  |  |  |  |  |  |  |  |  |
| O=c1[nH]c2c(c(=O)[nH]1)C(c1ccc(Br)cc1)c1c(-c3ccccc3)nn(-c3ccccc3)c1N2 (configuration not stated) | 2 (≈ 3.9 µM) | 2 (≈ 3.9 µM) | 2 (≈ 3.9 µM) | 58 (≈ 113 µM) | 2 (≈ 3.9 µM) | < 2 | < 2 | 30 (≈ 58.6 µM) | 2 (≈ 3.9 µM) |  |  |  |  |  |  |  |  |  |
| O=c1[nH]c(=S)[nH]c2c1C(c1ccccc1)c1c(-c3ccccc3)nn(-c3ccccc3)c1N2 (configuration not stated) | 4 (≈ 8.9 µM) | 4 (≈ 8.9 µM) | 8 (≈ 17.8 µM) | 8 (≈ 17.8 µM) | 4 (≈ 8.9 µM) | < 2 | 4 (≈ 8.9 µM) | 4 (≈ 8.9 µM) | 32 (≈ 71.2 µM) |  |  |  |  |  |  |  |  |  |
| O=c1[nH]c2c(c(=O)[nH]1)C(c1cccc([N+](=O)[O-])c1)c1c(-c3ccccc3)nn(-c3ccccc3)c1N2 (configuration not stated) | 2 (≈ 4.18 µM) | 2 (≈ 4.18 µM) | 2 (≈ 4.18 µM) | 2 (≈ 4.18 µM) | 2 (≈ 4.18 µM) | < 2 | < 2 | 2 (≈ 4.18 µM) | 2 (≈ 4.18 µM) |  |  |  |  |  |  |  |  |  |
| CN(C)[C@@H]1C(O)=C(C(N)=O)C(=O)[C@@]2(O)C(O)=C3C(=O)c4c(O)cccc4[C@@](C)(O)[C@H]3C[C@@H]12 [TETRACYCLINE] | 4 (≈ 9 µM) | 8 (≈ 18 µM) | 4 (≈ 9 µM) | 4 (≈ 9 µM) | < 2 | 2 (≈ 4.5 µM) |  | 8 (≈ 18 µM) |  | inactive | inactive |  |  |  |  |  |  |  |
| O=c1[nH]c(=S)[nH]c2c1C(c1ccc(Cl)cc1)c1c(-c3ccccc3)nn(-c3ccccc3)c1N2 (configuration not stated) | 4 (≈ 8.26 µM) | 4 (≈ 8.26 µM) | 4 (≈ 8.26 µM) | 4 (≈ 8.26 µM) | 8 (≈ 16.5 µM) | 8 (≈ 16.5 µM) | 4 (≈ 8.26 µM) | 16 (≈ 33.1 µM) | 16 (≈ 33.1 µM) |  |  |  |  |  |  |  |  |  |
| O=c1[nH]c2c(c(=O)[nH]1)C(c1ccc(Br)cc1)c1c(-c3ccccc3)nn(-c3ccc([N+](=O)[O-])cc3)c1N2 (configuration not stated) | 8 (≈ 14.4 µM) | 4 (≈ 7.18 µM) | 2 (≈ 3.59 µM) | 4 (≈ 7.18 µM) | 32 (≈ 57.4 µM) | < 2 | 4 (≈ 7.18 µM) | 4 (≈ 7.18 µM) | 32 (≈ 57.4 µM) |  |  |  |  |  |  |  |  |  |
| GENTAMICIN |  |  |  |  |  |  | 4 |  | 8 |  |  | inactive | inactive | inactive | inactive | inactive | inactive | inactive |
| O=c1[nH]c(=S)[nH]c2c1C(c1ccc(Cl)cc1)c1c(-c3ccccc3)nn(-c3ccc([N+](=O)[O-])cc3)c1N2 (configuration not stated) | 4 (≈ 7.56 µM) | 4 (≈ 7.56 µM) | 3 (≈ 5.67 µM) | 6 (≈ 11.3 µM) | 6 (≈ 11.3 µM) | 8 (≈ 15.1 µM) | 6 (≈ 11.3 µM) | 12 (≈ 22.7 µM) | 16 (≈ 30.2 µM) |  |  |  |  |  |  |  |  |  |
| Cc1ccc(C2c3c(-c4ccccc4)nn(-c4ccccc4)c3Nc3[nH]c(=O)[nH]c(=O)c32)cc1 (configuration not stated) | 2 (≈ 4.47 µM) | 2 (≈ 4.47 µM) | < 2 | 2 (≈ 4.47 µM) | 2 (≈ 4.47 µM) | < 2 | < 2 | 2 (≈ 4.47 µM) | 2 (≈ 4.47 µM) |  |  |  |  |  |  |  |  |  |
| O=c1[nH]c2c(c(=O)[nH]1)C(c1ccc(Cl)cc1)c1c(-c3ccccc3)nn(-c3ccc([N+](=O)[O-])cc3)c1N2 (configuration not stated) | 8 (≈ 15.6 µM) | 6 (≈ 11.7 µM) | 4 (≈ 7.8 µM) | 4 (≈ 7.8 µM) | 28 (≈ 54.6 µM) | < 2 | 6 (≈ 11.7 µM) | 2 (≈ 3.9 µM) | 28 (≈ 54.6 µM) |  |  |  |  |  |  |  |  |  |
| Cc1ccc(C2c3c(-c4ccccc4)nn(-c4ccc([N+](=O)[O-])cc4)c3Nc3[nH]c(=O)[nH]c(=O)c32)cc1 (configuration not stated) | 6 (≈ 12.2 µM) | 6 (≈ 12.2 µM) | 2 (≈ 4.06 µM) | 2 (≈ 4.06 µM) | 24 (≈ 48.7 µM) | < 2 | 4 (≈ 8.12 µM) | 2 (≈ 4.06 µM) | 28 (≈ 56.9 µM) |  |  |  |  |  |  |  |  |  |
| O=c1[nH]c(=S)[nH]c2c1C(c1ccc([N+](=O)[O-])cc1)c1c(-c3ccccc3)nn(-c3ccccc3)c1N2 (configuration not stated) | 4 (≈ 8.09 µM) | 4 (≈ 8.09 µM) | 3 (≈ 6.07 µM) | 4 (≈ 8.09 µM) | 8 (≈ 16.2 µM) | 6 (≈ 12.1 µM) | 6 (≈ 12.1 µM) | 14 (≈ 28.3 µM) | 12 (≈ 24.3 µM) |  |  |  |  |  |  |  |  |  |
| O=c1[nH]c2c(c(=O)[nH]1)C(c1cccc([N+](=O)[O-])c1)c1c(-c3ccccc3)nn(-c3ccc([N+](=O)[O-])cc3)c1N2 (configuration not stated) | 6 (≈ 11.5 µM) | 4 (≈ 7.64 µM) | 2 (≈ 3.82 µM) | 2 (≈ 3.82 µM) | 26 (≈ 49.7 µM) | < 2 | 6 (≈ 11.5 µM) | 2 (≈ 3.82 µM) | 30 (≈ 57.3 µM) |  |  |  |  |  |  |  |  |  |
